Legend:
[1] = single substance; cited from earlier work
[2] = test system: patients with rheumatoid arthritis; assay: Treatment of rheumatoid arthritis patients with the individual substances or extracts A-F; format: in vivo, human; details: for alleviation/reduction of joint pain / improvement in joint sensitivity: after two weeks; for Result of treatment, scale of 1-10: individual substance, scale from 1 (scarcely any alleviation of symptoms) to 10 (complete elimination of symptoms)
Experimental: All the abovementioned active ingredients or medicinal plant extracts A-F were tested singly in the treatment of rheumatoid arthritis. The following products and daily doses were used for this: A. Omega-3 fatty acids: 8 capsules of Ameu® 500 mg. One capsule of Ameu contains 500 mg of fish body oil (fatty oil from […] comprises 70 mg of eicosapentaenoic acid and 50 mg of docosahexaenoic acid (total 120 mg of omega-3 fatty acids). B. α-Tocopherol (vitamin E): 800 to 1000 I.U. once a day. C. Ascorbic acid (vitamin C): 3 g in three 1000 mg doses. D. Selenium: 300 μg of selenium as sodium selenite 5H2O ([…]® or […]®) once a day. E. Harpagophytum: 2×480 mg of dry extract once a day (extractant: ethanol 60% (V/V) (BIOCUR Arzneimittel GmbH). F. Boswellia serrata: 3×400 mg of dry extract once a day (H 15 Gufic tablets (Gufic Chem, India)). […] A positive rheumatoid factor was not obligatory. All the treated patients had elevated C-reactive protein and frequently raised ferritin as signs of inflammation. Bacterial and parasitic causes, and allergies (including yersinia, staphylococci, streptococci, mycoplasma, Whipple's disease, borreliosis and gluten allergies) were excluded. […] All the patients had discontinued their previous medication (morphine, ibuprofen, cortisol, etc.) at least one week before starting the treatment, or had received no medical therapy over a prolonged period because of toxic side effects of other medicaments. The results of treatment were classified on a scale of from 1 (scarcely any alleviation of symptoms) to 10 (complete elimination of symptoms).

rheumatoid arthritis = details: vitamin E alone, 1200 mg/day, without influencing the immune markers; cited from earlier work

| Structure (SMILES) | effectiveness compared with total root extract [1] | alleviation/reduction of joint pain [2] | improvement in joint sensitivity [2] | Result of treatment, scale of 1-10 [2] | pain (rheumatoid arthritis) |
| --- | --- | --- | --- | --- | --- |
| C[C@]1(OC(=O)/C=C/c2ccccc2)C[C@@H](O)[C@]2(O)C=CO[C@@H](O[C@@H]3O[C@H](CO)[C@@H](O)[C@H](O)[C@H]3O)[C@@H]21 [Harpagoside] | far less effective than the total root extract |  |  |  |  |
| O=C1O[C@H]([C@@H](O)CO)C(O)=C1O [Ascorbic acid (vitamin C), Ascorbic acid] |  | 2-5% | 5-10% | 2 |  |
| Cc1c(C)c2c(c(C)c1O)CC[C@@](C)(CCC[C@H](C)CCC[C@H](C)CCCC(C)C)O2 [α-Tocopherol (vitamin E), α-Tocopherol] |  | 5% | 10% | 3.0 | alleviation of pain |

— patent US20080213236A1, “Natural Remedy-Dietary Supplement Combination Product” (priority 2005, published 2008)
